# Read-outs that look alike come from different tables or passages of the source.
# Assays:
# human α1B‐adrenoceptor [1] = target: T1, human α1B‐adrenoceptor (Homo sapiens, UniProt P35368); test: ^3H‐cAMP accumulation in the presence of 10 μM forskolin, CHO‐α1B cells; type: cell-based; details: CHO‐α1B cells
# T1 construct: expressed in transfected cells; host or cells: CHO-K1
# T1 sequence (P35368 1-520): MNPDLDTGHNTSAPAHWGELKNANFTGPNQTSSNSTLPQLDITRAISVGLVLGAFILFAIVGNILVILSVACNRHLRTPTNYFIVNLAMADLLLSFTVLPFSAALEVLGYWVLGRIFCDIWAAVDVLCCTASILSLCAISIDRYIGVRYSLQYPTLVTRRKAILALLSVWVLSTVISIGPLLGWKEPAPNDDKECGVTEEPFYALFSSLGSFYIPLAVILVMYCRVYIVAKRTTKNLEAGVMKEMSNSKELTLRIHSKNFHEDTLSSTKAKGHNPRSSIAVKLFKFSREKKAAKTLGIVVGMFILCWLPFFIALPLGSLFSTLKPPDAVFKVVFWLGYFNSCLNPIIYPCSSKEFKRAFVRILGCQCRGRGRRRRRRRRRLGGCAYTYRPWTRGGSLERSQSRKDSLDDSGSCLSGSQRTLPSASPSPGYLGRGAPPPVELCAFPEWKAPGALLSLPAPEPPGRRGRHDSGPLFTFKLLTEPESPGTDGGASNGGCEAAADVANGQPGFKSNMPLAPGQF
# human α1B‐adrenoceptor [2] = target: T1, human α1B‐adrenoceptor; test: ^3H‐prazosin whole‐cell radioligand binding, CHO‐α1B cells; details: CHO‐α1B cells
# human α1B‐adrenoceptor [3] = target: T1, human α1B‐adrenoceptor; test: ^3H‐cAMP accumulation, CHO‐α1B cells; type: cell-based; details: CHO‐α1B cells
# human α1B‐adrenoceptor [4] = target: T1, human α1B‐adrenoceptor; test: Intracellular free calcium mobilization, CHO‐α1B cells; type: cell-based; details: CHO‐α1B cells
# [5] = target: T2, human α1D‐adrenoceptor (full length) (Homo sapiens, UniProt P25100); test: ^3H‐cAMP accumulation in the presence of 10 μM forskolin, CHO‐α1D cells; type: cell-based; details: CHO‐α1D cells; for cAMP (in presence of forskolin) Log EC50: log values given negative
# T2 construct: human α1D‐adrenoceptor (full length) were used; expressed in transfected cells; host or cells: CHO-K1
# T2 sequence (P25100 1-572): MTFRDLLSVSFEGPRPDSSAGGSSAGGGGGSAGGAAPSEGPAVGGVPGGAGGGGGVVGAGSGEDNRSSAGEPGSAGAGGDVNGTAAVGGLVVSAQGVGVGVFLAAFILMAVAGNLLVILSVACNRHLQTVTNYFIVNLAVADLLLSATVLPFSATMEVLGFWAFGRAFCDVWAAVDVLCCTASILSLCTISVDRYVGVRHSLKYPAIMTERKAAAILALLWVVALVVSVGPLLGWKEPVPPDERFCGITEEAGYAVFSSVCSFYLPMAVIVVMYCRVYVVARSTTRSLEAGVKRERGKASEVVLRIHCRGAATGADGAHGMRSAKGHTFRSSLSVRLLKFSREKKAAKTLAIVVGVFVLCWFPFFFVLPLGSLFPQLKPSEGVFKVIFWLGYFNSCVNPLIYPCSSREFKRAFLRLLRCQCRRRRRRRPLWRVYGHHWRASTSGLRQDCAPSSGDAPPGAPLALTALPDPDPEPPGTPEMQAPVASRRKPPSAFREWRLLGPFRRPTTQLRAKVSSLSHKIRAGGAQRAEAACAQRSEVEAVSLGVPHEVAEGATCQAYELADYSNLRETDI
# [6] = target: T2, human α1D‐adrenoceptor (full length); test: Intracellular free calcium mobilization, CHO‐α1D cells; type: cell-based
# [7] = target: T2, human α1D‐adrenoceptor (full length); test: ^3H‐prazosin whole‐cell radioligand binding, CHO‐α1D cells
# human α1A‐adrenoceptor [8] = target: T3, human α1A‐adrenoceptor (Homo sapiens, UniProt P35348); test: ERK1/2‐phosphorylation (Surefire Alphascreen), CHO‐α1A cells; type: cell-based
# T3 construct: expressed in transfected cells; host or cells: CHO-K1
# T3 sequence (P35348 1-466): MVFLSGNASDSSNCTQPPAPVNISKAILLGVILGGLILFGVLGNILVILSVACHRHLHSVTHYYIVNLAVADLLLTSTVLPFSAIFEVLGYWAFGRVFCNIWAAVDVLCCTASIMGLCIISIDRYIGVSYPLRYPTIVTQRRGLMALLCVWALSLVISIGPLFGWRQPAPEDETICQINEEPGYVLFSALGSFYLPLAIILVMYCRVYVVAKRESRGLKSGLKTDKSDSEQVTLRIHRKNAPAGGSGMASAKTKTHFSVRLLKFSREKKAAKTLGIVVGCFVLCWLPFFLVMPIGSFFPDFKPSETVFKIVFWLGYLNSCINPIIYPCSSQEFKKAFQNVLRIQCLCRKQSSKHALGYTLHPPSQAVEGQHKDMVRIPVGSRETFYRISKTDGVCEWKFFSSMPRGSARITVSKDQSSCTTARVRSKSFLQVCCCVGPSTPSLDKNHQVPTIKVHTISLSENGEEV
# human α1A‐adrenoceptor [9] = target: T3, human α1A‐adrenoceptor; test: ^3H‐cAMP accumulation, CHO‐α1A cells; type: cell-based; details: CHO‐α1A cells; for cAMP accumulation % forskolin: % of 10 µM forskolin response
# human α1A‐adrenoceptor [10] = target: T3, human α1A‐adrenoceptor; test: Intracellular free calcium mobilization, CHO‐α1A cells; type: cell-based
# human α1B‐adrenoceptor [11] = target: T1, human α1B‐adrenoceptor; test: ERK1/2‐phosphorylation (Surefire Alphascreen), CHO‐α1B cells; type: cell-based; details: CHO‐α1B cells, for bi‐phasic responses the initial stimulatory part
# human α1A‐adrenoceptor [12] = target: T3, human α1A‐adrenoceptor; test: ^3H‐cAMP accumulation in the presence of 10 μM forskolin, CHO‐α1A cells; type: cell-based; details: CHO‐α1A cells
# human α1A‐adrenoceptor [13] = target: T3, human α1A‐adrenoceptor; test: ^3H‐prazosin whole‐cell radioligand binding, CHO‐α1A cells
# [14] = target: T2, human α1D‐adrenoceptor (full length); test: ERK1/2‐phosphorylation (Surefire Alphascreen), CHO‐α1D cells; type: cell-based
# [15] = target: T2, human α1D‐adrenoceptor (full length); test: ^3H‐cAMP accumulation, CHO‐α1D cells; type: cell-based; details: cAMP accumulation without forskolin
# [16] = tested on: parental CHO cell line without any transfected receptors; test: Intracellular calcium mobilization, parent CHO cells without transfected receptors; type: cell-based, Chinese hamster; details: Cricetulus griseus; CHO cells without transfected receptors; response at maximum concentration used (c2), as % of ionomycin (10μM) response; mean ± s.e.m.; read-out: Intracellular calcium release % ionomycin
# [17] = tested on: parental CHO cell line without any transfected receptors; test: Forskolin‐stimulated cAMP accumulation, parent CHO cells without transfected receptors; type: cell-based, Chinese hamster; details: CHO cells without transfected receptors; in presence of forskolin
# [18] = tested on: parental CHO cell line without any transfected receptors; test: ERK1/2‐phosphorylation, parent CHO cells without transfected receptors; type: cell-based, Chinese hamster; details: Cricetulus griseus, CHO; read-out: ERK1/2-phosphorylation % PDBu at 100μM
# [19] = fold increase of the forskolin response
# [20] = CHO‐α1D cells, log values given negative
smiles,measurement,setting,value
CCc1cccc(CC)c1NC1=NCCN1 [ST‐91],cAMP accumulation (in presence of forskolin) Fold increase,human α1B‐adrenoceptor [1]; [19],2.34 ± 0.09 fold
same,cAMP accumulation (in presence of forskolin) Log EC50,human α1B‐adrenoceptor [1]; in presence of forskolin,−7.23 ± 0.07
same,"Log KD, ^3H‐prazosin binding","human α1B‐adrenoceptor [2]; whole‐cell binding (from Table 1), given as log KD (negative numbers)",−4.39
same,"Log KD α1B, ^3H‐prazosin whole cell binding","human α1B‐adrenoceptor [2]; given as log KD (negative), mean ± SEM",−4.39 ± 0.04
same,cAMP accumulation Log EC50,human α1B‐adrenoceptor [3],−6.52 ± 0.04
same,cAMP accumulation % forskolin,human α1B‐adrenoceptor [3]; % forskolin maximum response,30.4 ± 3.5%
same,Intracellular calcium release Log EC50,human α1B‐adrenoceptor [4]; given as log EC50 (negative numbers),−8.13 ± 0.17
same,Log efficacy ratio KD /EC50,"human α1B‐adrenoceptor [4]; intrinsic efficacy ratio, KD from binding / EC50 calcium, log",3.74
same,Intracellular calcium release % ionomycin,human α1B‐adrenoceptor [4]; maximal response as % of 10 µM ionomycin response,62.0 ± 2.1%
same,cAMP (in presence of forskolin) Fold increase,[5]; [19],No response
same,cAMP (in presence of forskolin) Log EC50,[5],No response
same,Log efficacy ratio KD /EC50,"[6]; CHO‐α1D cells, intrinsic efficacy ratio, binding KD / calcium EC50",1.10
same,Intracellular calcium release Log EC50,[6]; [20],−6.34 ± 0.15
same,Intracellular calcium release % ionomycin,"[6]; CHO‐α1D cells, maximal response as % of 10 µM ionomycin",6.3 ± 1.6%
same,3H‐prazosin binding Log KD,"[7]; CHO‐α1D cells, whole‐cell binding (from Table 1), log values given negative",−5.24
same,"Log KD α1D, ^3H‐prazosin whole cell binding","[7]; CHO‐α1D cells, given as log KD (negative), mean ± SEM, 'early plateau' = specific binding not fully inhibited",−5.24 ± 0.09
same,Affinity selectivity ratio α1B vs α1D,[7]; higher affinity for α1D than α1B,7.1 fold
same,ERK1/2‐phosphorylation Log EC50,"human α1A‐adrenoceptor [8]; CHO‐α1A cells, 2–4 min, ^a bi‐phasic: initial stimulatory part, ^b also active in parent CHO cells",−8.70 ± 0.06
same,ERK1/2‐phosphorylation % PDBu,"human α1A‐adrenoceptor [8]; CHO‐α1A cells, % of 10 µM PDBu, ^a bi‐phasic: initial stimulatory part",79.5 ± 5.2%
same,cAMP accumulation Log EC50,human α1A‐adrenoceptor [9]; 5 h,−6.80 ± 0.05
same,cAMP accumulation % forskolin,human α1A‐adrenoceptor [9],108.2 ± 12.5%
same,Log efficacy ratio KD /EC50,"human α1A‐adrenoceptor [10]; CHO‐α1A cells, binding KD and calcium EC50",3.14
same,Intracellular calcium release Log EC50,"human α1A‐adrenoceptor [10]; CHO‐α1A cells, given as log EC50 (negative)",−9.08 ± 0.11
same,Intracellular calcium release % ionomycin,"human α1A‐adrenoceptor [10]; CHO‐α1A cells, maximal response as % of 10 µM ionomycin",64.6 ± 2.6%
same,ERK1/2‐phosphorylation Log EC50,human α1B‐adrenoceptor [11],−7.33 ± 0.12
same,ERK1/2‐phosphorylation % PDBu,human α1B‐adrenoceptor [11]; maximal response as % PDBu response,83.6 ± 8.9%
same,cAMP accumulation (in presence of forskolin) Log EC50,human α1A‐adrenoceptor [12]; 10 μM forskolin,−7.86 ± 0.14
same,cAMP accumulation (in presence of forskolin) Fold increase,human α1A‐adrenoceptor [12]; [19],2.17 ±.10 fold
same,"Log KD α1A, ^3H‐prazosin whole cell binding","human α1A‐adrenoceptor [13]; CHO‐α1A cells, given as log KD (negative), mean ± SEM",−5.94 ± 0.01
same,Affinity selectivity ratio α1A vs α1B,human α1A‐adrenoceptor [13]; higher affinity for α1A than α1B,35.5 fold
same,Affinity selectivity ratio α1A vs α1D,human α1A‐adrenoceptor [13]; higher affinity for α1A than α1D,5.0 fold
same,ERK1/2‐phosphorylation Log EC50,[14]; [20],−5.23 ± 0.21
same,ERK1/2‐phosphorylation % PDBu,"[14]; CHO‐α1D cells, maximal response as % of PDBu",21.1 ± 4.4%
same,cAMP Log EC50,[15],No response
N=C(N)N/N=C/c1c(Cl)cccc1Cl [Guanabenz],Emax,[16],23.5 ± 7.4%
same,cAMP (in presence of forskolin) Log EC50,[5],No response
same,Intracellular calcium release % Ionomycin at 100 µM,[6],20.2 ± 5.1%
same,cAMP accumulation (in presence of forskolin) Log EC50,[17],No response
same,Kd,"[7]; 3H‐prazosin binding Log KD, CHO‐α1D cells, whole‐cell binding (from Table 1), log values given negative",955 nM
same,Kd,"[7]; Log KD α1D, ^3H‐prazosin whole cell binding, CHO‐α1D cells, given as log KD (negative), mean ± SEM, 'early plateau' = specific binding not fully inhibited",955 nM
same,ERK1/2‐phosphorylation % PDBu,human α1A‐adrenoceptor [8],68.4 ± 8.6%
same,EC50,"human α1A‐adrenoceptor [8]; CHO‐α1A cells, 2–4 min, ^a bi‐phasic: initial stimulatory part, ^b also active in parent CHO cells, read-out: ERK1/2‐phosphorylation Log EC50 (converted)",204 nM
same,EC50,"human α1A‐adrenoceptor [9]; 5 h, read-out: cAMP accumulation Log EC50 (converted)",1820 nM
same,cAMP accumulation % forskolin,human α1A‐adrenoceptor [9],2.1 ± 0.3%
same,Intracellular calcium release % ionomycin,human α1A‐adrenoceptor [10],17.8 ± 3.2%
same,EC50,"human α1A‐adrenoceptor [10]; CHO‐α1A cells, given as log EC50 (negative), read-out: Intracellular calcium release Log EC50 (converted)",110 nM
same,EC50,"human α1A‐adrenoceptor [12]; 10 μM forskolin, read-out: cAMP accumulation (in presence of forskolin) Log EC50 (converted)",145 nM
same,Emax at 100 µM,[18],8.5 ± 3.1%
same,Kd,"human α1A‐adrenoceptor [13]; Log KD α1A, ^3H‐prazosin whole cell binding, CHO‐α1A cells, given as log KD (negative), mean ± SEM",331 nM
same,ERK1/2‐phosphorylation % PDBu at 100 µM,[14],20.8 ± 6.6%
same,cAMP Log EC50,[15],No response
